Test results reported in US20110045101A1, “FUNGICIDAL SUBSTITUTED AZOLES” (E.I. Du Pont De Nemours and Company, priority 2009, published 2011).
Marks after values point to notes of the source that are not given here.

What was measured:
Assay type in all cases: in vivo
Settings in all cases: 100 = 100% disease control
[1] = tested on: Septoria tritici; test: Test G: wheat leaf blotch on wheat seedlings, sprayed the day before inoculation, visual disease rating
Method in brief: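 Compounds dissolved in acetone (3% of final volume), then suspended in 50/50 acetone/water with 250 ppm Trem® 014 and sprayed to run-off on seedlings at 200 ppm (≈500 g/ha) or 40 ppm where marked. Inoculation with spores followed next day; visual rating after 48 h saturated at 24° C plus 19 days at 20° C.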

[2] = tested on: Alternaria solani; test: Test D: tomato early blight, sprayed the day before inoculation, visual disease rating
Method in brief: (§1)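 Compounds were dissolved in acetone (3% of final volume), then suspended in 50/50 acetone/purified water with 250 ppm Trem® 014 surfactant. Suspensions at 200 ppm (some at 40 ppm) were sprayed to run-off, 200 ppm being equivalent to 500 g/ha.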

[3] = tested on: Botrytis cinerea; test: Test C: tomato Botrytis on tomato seedlings, sprayed the day before inoculation, visual disease rating
Method in brief: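 Compounds were dissolved in acetone (3% of final volume), then suspended in 50/50 acetone/purified water containing 250 ppm polyhydric alcohol ester surfactant. Suspensions were sprayed to run-off on tomato seedlings at 200 ppm, equivalent to 500 g/ha, or at 40 ppm where marked.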

[4] = tested on: Septoria nodorum; test: Test F: wheat glume blotch on wheat seedlings, sprayed the day before inoculation, visual disease rating
Method in brief: as §1

[5] = tested on: Puccinia recondita f. sp. tritici; test: Test I: wheat leaf rust on wheat seedlings, sprayed the day before inoculation, visual disease rating
Method in brief: as §1

[6] = tested on: Erysiphe graminis f. sp. tritici; test: Test J: wheat powdery mildew on wheat seedlings, sprayed the day before inoculation, visual disease rating
Method in brief: as §1

[7] = 200 ppm, 0 = no control relative to controls
[8] = 40 ppm (marked *), 0 = no control

Compound	Test G disease control rating [1, 7]	Test D disease control rating [2, 7]	Test C disease control rating [3, 7]	Test F disease control rating [4, 7]	Test I disease control rating [5, 7]	Test J disease control rating [6, 7]	Test G disease control rating [1, 8]	Test D disease control rating [2, 8]	Test C disease control rating [3, 8]	Test F disease control rating [4, 8]	Test I disease control rating [5, 8]	Test J disease control rating [6, 8]	further results
Cc1nn(C)c(-c2c(Cl)cccc2Cl)c1-c1cccc(F)c1 [compound 88]	0%	0%	75%	0%	68%	99%							
COc1ccc(F)c(-c2c(Cl)nc(Br)n2-c2ccc(Cl)cc2)c1F [compound 117]	97%	100%	96%	99%	99%	100%							
Cc1nc(Cl)n(-c2c(F)cc(F)cc2F)c1-c1ccc(Cl)cc1 [compound 446]							95* %	100* %	96* %	0* %	68* %	91* %	
COc1cc(F)c(-n2cnc(Br)c2-c2ccc(Cl)cc2)c(F)c1 [compound 173]							90* %	0* %	98* %	0* %	41* %	0* %	
Fc1cc(-n2c(Cl)nc(Cl)c2-c2ccncc2F)ccc1Cl [compound 455]	95%	95%	99%	0%	99%	68%							
Cc1nn(C)c(-c2c(F)cc(F)cc2F)c1-c1ccc(Cl)c(F)c1 [compound 71]	2%	33%	47%	0%	9%	56%							
Fc1cccc(C(F)(F)F)c1-c1c(Cl)nc(Br)n1-c1ccc(Cl)cc1 [compound 86]	93%	0%	0%	0%	27%	99%							
COc1ccc(F)c(-c2c(Cl)nc(Br)n2-c2cccc(F)c2)c1F [compound 278]													Test G disease control rating ([1]; 200 ppm, 0 = no control): 95%; Test D disease control rating ([2]; 200 ppm, 0 = no control): 100%; Test C disease control rating ([3]; 200 ppm, 0 = no control): 99%; Test F disease control rating ([4]; 200 ppm, 0 = no control): 100%; Test I disease control rating ([5]; 200 ppm, 0 = no control): 100%; Test J disease control rating ([6]; 200 ppm, 0 = no control): 100%
COc1cc(Cl)cc(F)c1-c1c(Cl)nc(C)n1-c1ccc(Cl)cc1 [compound 149]													Test G disease control rating ([1]; 200 ppm, 0 = no control): 96%; Test D disease control rating ([2]; 200 ppm, 0 = no control): 0%; Test C disease control rating ([3]; 200 ppm, 0 = no control): 53%; Test F disease control rating ([4]; 200 ppm, 0 = no control): 98%; Test I disease control rating ([5]; 200 ppm, 0 = no control): 95%; Test J disease control rating ([6]; 200 ppm, 0 = no control): 95%
Fc1cc(-n2c(Br)nc(Cl)c2-c2c(F)ccc(F)c2Cl)ccc1Cl [compound 219]													Test G disease control rating ([1]; 200 ppm, 0 = no control): 96%; Test D disease control rating ([2]; 200 ppm, 0 = no control): 97%; Test C disease control rating ([3]; 200 ppm, 0 = no control): 98%; Test F disease control rating ([4]; 200 ppm, 0 = no control): 51%; Test I disease control rating ([5]; 200 ppm, 0 = no control): 99%; Test J disease control rating ([6]; 200 ppm, 0 = no control): 99%
Fc1ccc(-n2cnc(Cl)c2-c2c(F)ccc(F)c2F)cc1 [compound 121]	85%	100%	99%	0%	89%	97%							
Fc1ccc(-n2cnc(Cl)c2-c2c(F)cc(F)cc2F)cc1 [compound 137]	98%	100%	94%	0%	55%	97%							
Cc1nc(Br)n(-c2c(F)cccc2F)c1-c1ccc(Cl)cc1 [compound 216]							96* %	100* %	99* %	0* %	93* %	94* %	
COc1cc(F)c(-n2c(Cl)nc(Br)c2-c2ccc(Cl)cc2)c(F)c1 [compound 214]							94* %	99* %	100* %	97* %	97* %	98* %	
Fc1cc(F)c(-n2c(Cl)nc(Br)c2-c2ccc(Cl)cc2)c(F)c1 [compound 233]							95* %	88* %	96* %	0* %	41* %	94* %	
